Test results published in patent US7090846B2 (priority 1999, dated 2006).

How the values were obtained:
MCF-7, or PC3 cells = conditions: tumor cell cultures, in vitro; for comparison among the conjugates: inhibition on the colony formation: ranking among tested conjugates; for inhibition on the colony formation: serial dilutions, vs untreated control
Experimental: (§1) Cell Lines Used in the Experiments: • P388 mouse lymphocytic leukemia cell line, originated from Arthur D. Little Inc., Cambridge, Mass., USA, in vitro established in the National Institute of Oncology, Budapest, Hungary (Cancer Treat. Rep. 1986; 70: 279–284); • MCF-7 humane breast cancer cell line, originated from American Type Culture Collection; • PC3 humane prostate cancer cell line, originated from American Type Culture Collection;
MCF-7, or PC3 cells were plated into petri dishes, then in adequate medium and conditions, were incubated the cells with serial dilutions of the different polycation bioconjugates, prepared according to the invention. The colonies, consisting minimum 30 cells were then counted and the obtained values of three parallel petri dishes were averaged. Relative cloning efficiency was calculated by taking the control values as 100 per cent. (Cancer Detection and Prevention, 20(2): 146–152, 1996).

[1] = system: tumor cell cultures (P388, MCF-7, PC3); conditions: in vitro; for comparison among the conjugates: inhibition on the cell proliferation: ranking among tested conjugates; for inhibition on the cell proliferation: serial dilutions, vs untreated control
Source text: as §1
Sulforodamine B (SRB) assay: approximately one to two thousand cells were put into each well of the special, small plastic tray (micro-well-plates). The cells were incubated in adequate medium and conditions and after adhering to the surface, were treated with serial dilutions of the different polycation bioconjugates, prepared according to the invention. At the end of the experiment the cells were fixed, stained with SRB, and the optical density, which is in direct proportion to the cell proliferation, was read in a CLS 962 ELISA microplate reader. Relative inhibition of proliferation was calculated by taking the control values as 100 per cent. (Cancer Detection and Prevention, 20(2): 146–152, 1996).
Cell counting method, with Neubauer-type chamber: in suspension cultures of exponentially growing cells, which were in adequate medium and conditions, were treated with serial dilutions of the different polycation bioconjugates, prepared according to the invention, and 24- and 48 hours following the treatment the cells were stained with tripan-blue, the treated and control cells were counted in a modified Neubauer-type hemocytometer chamber. Relative inhibition of proliferation was calculated by taking the control values as 100 per cent.

[2] = system: transplantable rodent tumors (P-388 lymphoid leukemia, S-180 sarcoma); conditions: mouse, in vivo
Source text: The tumor growth inhibitory effect of the polycation bioconjugates was studied on the following transpalatable rodent tumors: • P-388 lymphoid leukemia cells, originated from Cambridge, Mass., USA, were transplanted i.p. and s.c. into animals: BDF1 inbred male mice, weighing 22–24 g, specified pathogen free (SPF) breedings; • S-180 sarcoma, originated from Chester Beatty I., London, were transplanted s.c. into animals: BDFI inbred male mice, weighing 22–24 g, specified pathogen free (SPF) breedings.

poly-(ε)-L-lysine-cisplatin-hydrogen-bromide
comparison among the conjugates: inhibition on the colony formation (MCF-7, or PC3 cells): most effective inhibition
inhibition on the colony formation (MCF-7, or PC3 cells): dose dependent inhibition
comparison among the conjugates: inhibition on the cell proliferation [1]: most effective inhibition
inhibition on the cell proliferation [1]: dose dependent inhibition

palmitoyl-poly-(ε)-L-lysine-hydrogen-bromide
comparison among the conjugates: inhibition on the colony formation (MCF-7, or PC3 cells): most effective inhibition
inhibition on the colony formation (MCF-7, or PC3 cells): dose dependent inhibition
comparison among the conjugates: inhibition on the cell proliferation [1]: most effective inhibition
inhibition on the cell proliferation [1]: dose dependent inhibition
inhibitory effect on transplantable rodent tumors (mean tumor volumes, tumor growth curves) [2]: significant inhibitory effect

cholesterol-hemisuccinyl-poly-(ε)-L-lysine-hydrogen-bromide
inhibition on the colony formation (MCF-7, or PC3 cells): dose dependent inhibition
inhibition on the cell proliferation [1]: dose dependent inhibition
inhibitory effect on transplantable rodent tumors (mean tumor volumes, tumor growth curves) [2]: significant inhibitory effect
